Source: PMC3961306, “Comparison of the Cancer Gene Targeting and Biochemical Selectivities of All Targeted Kinase Inhibitors Approved for Clinical Use” (PLoS ONE, 2014)
Like-named read-outs stand apart in the source and are kept apart here.

What was measured:
[1] = system: forty-four human cancer cell lines; experiment: Cell proliferation assay (ATPlite, 72 hours) in the 44 cell line Oncolines panel; format: cell-based; settings: Homo sapiens
[2] = molecular target: T1, panel of more than 300 wild-type and mutant kinases (313 kinase panel) (Homo sapiens, UniProt P51955); experiment: Kinase profiling in a biochemical assay panel (mobility shift assays and ELISA), %-inhibition at 1 μM; selectivity entropy; settings: kinase NEK2; 1 μM
T1 sequence (P51955 1-445): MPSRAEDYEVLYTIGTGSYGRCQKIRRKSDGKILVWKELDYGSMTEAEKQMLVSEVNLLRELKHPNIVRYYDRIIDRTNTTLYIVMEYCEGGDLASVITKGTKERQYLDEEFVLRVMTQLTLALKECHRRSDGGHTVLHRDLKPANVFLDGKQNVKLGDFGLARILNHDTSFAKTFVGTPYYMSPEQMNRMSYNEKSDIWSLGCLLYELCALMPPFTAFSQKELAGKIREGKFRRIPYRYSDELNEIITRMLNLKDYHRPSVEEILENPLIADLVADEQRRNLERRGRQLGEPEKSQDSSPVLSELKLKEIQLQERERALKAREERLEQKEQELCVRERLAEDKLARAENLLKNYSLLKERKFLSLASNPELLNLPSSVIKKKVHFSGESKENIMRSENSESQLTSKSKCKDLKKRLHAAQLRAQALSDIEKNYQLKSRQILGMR

[3] = molecular target: T2, panel of more than 300 wild-type and mutant kinases (313 kinase panel) (Homo sapiens, UniProt Q16832); experiment: as above; settings: kinase DDR2; compound at 1 μM
T2 sequence (Q16832 22-855): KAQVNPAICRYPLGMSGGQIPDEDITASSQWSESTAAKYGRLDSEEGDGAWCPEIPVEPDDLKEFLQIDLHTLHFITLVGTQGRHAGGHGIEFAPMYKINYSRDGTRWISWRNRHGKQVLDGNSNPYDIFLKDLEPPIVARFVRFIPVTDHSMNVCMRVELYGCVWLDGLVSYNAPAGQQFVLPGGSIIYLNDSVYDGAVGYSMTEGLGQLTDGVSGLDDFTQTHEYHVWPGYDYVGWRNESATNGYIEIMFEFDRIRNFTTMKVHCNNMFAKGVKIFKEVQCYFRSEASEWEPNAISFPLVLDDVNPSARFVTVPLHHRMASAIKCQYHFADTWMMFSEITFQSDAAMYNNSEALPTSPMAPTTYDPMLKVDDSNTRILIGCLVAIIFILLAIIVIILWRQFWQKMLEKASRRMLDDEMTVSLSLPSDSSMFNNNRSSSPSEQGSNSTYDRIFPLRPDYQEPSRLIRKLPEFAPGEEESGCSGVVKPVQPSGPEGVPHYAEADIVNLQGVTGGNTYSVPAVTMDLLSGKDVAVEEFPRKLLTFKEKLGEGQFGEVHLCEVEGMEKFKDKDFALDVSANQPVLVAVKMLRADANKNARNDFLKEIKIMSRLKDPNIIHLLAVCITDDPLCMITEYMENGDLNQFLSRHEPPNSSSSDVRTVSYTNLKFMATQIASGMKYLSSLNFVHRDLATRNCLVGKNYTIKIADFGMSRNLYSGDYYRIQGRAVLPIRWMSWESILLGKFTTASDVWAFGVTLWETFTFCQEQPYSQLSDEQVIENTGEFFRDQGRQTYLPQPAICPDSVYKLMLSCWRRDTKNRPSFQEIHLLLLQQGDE

[4] = molecular target: panel of more than 300 wild-type and mutant kinases (313 kinase panel) (Homo sapiens, UniProt Q8TDX7); experiment: as above; settings: kinase NEK7; 1 μM

For `Cc1cn(-c2cc(NC(=O)c3ccc(C)c(Nc4nccc(-c5cccnc5)n4)c3)cc(C(F)(F)F)c2)cn1` [nilotinib], the IC50 ([1]; 4-4 cell, read-out: cell panel IC50, J82) was 6.33 µM, the IC50 ([1]; 4-4 cell, read-out: cell panel IC50, PA-1) was 13.8 µM and the IC50 ([1]; 4-4 cell, read-out: cell panel IC50, SJCRH30) was greater than 31.6 µM. For the same molecule, the IC50 ([1]; 4-4 cell, read-out: cell panel IC50, SR) was 4.31 µM, the IC50 ([1]; 769-P, read-out: cell panel IC50, 769-P) was greater than 31.6 µM and the IC50 ([1]; 786-0, read-out: cell panel IC50, 786-0) was 1.11 µM. It also gave an IC50 ([1]; A 172, read-out: cell panel IC50, A-172) of 9.78 µM, an IC50 ([1]; A204, read-out: cell panel IC50, A-204) of 0.584 µM and an IC50 ([1]; A498, read-out: cell panel IC50, A-498) of 5.04 µM. It also gave an IC50 ([1]; A549, read-out: cell panel IC50, A-549) of 7.29 µM, an IC50 ([1]; A-375, read-out: cell panel IC50, A375) of 9.58 µM and an IC50 ([1]; A-427, read-out: cell panel IC50, A-427) of 6.73 µM. For the same molecule, the IC50 ([1]; ACHN, read-out: cell panel IC50, ACHN) was 12.3 µM, the IC50 ([1]; AN3-CA, read-out: cell panel IC50, AN3 CA) was 26.1 µM and the IC50 ([1]; AU565, read-out: cell panel IC50, AU-565) was 4.63 µM. For the same molecule, the IC50 ([1]; BT-20, read-out: cell panel IC50, BT-20) was greater than 31.6 µM, the IC50 ([1]; BT-549, read-out: cell panel IC50, BT-549) was 3.33 µM and the IC50 ([1]; BXPC-3, read-out: cell panel IC50, BxPC-3) was 10.1 µM. The IC50 ([1]; C-33-A, read-out: cell panel IC50, C-33 A) was greater than 31.6 µM, the IC50 ([1]; CAL-27, read-out: cell panel IC50, CAL 27) was 9.84 µM and the IC50 ([1]; CCRF-CEM, read-out: cell panel IC50, CCRF-CEM) was 6.74 µM. For the same molecule, the IC50 ([1]; DLD-1, read-out: cell panel IC50, DLD-1) was 7.3 µM, the IC50 ([1]; FaDu, read-out: cell panel IC50, FaDu) was greater than 31.6 µM and the IC50 ([1]; HCT-15, read-out: cell panel IC50, HCT-15) was 6.17 µM. It also gave an IC50 ([1]; HCT-116, read-out: cell panel IC50, HCT-116) of 5.75 µM, an IC50 ([1]; Hs-578T, read-out: cell panel IC50, Hs 578T) of 7.43 µM and an IC50 ([1]; Jurkat E6.1, read-out: cell panel IC50, Jurkat E6.1) of 11.8 µM. It also gave an IC50 ([1]; K562, read-out: cell panel IC50, K-562) of 0.026 µM, an IC50 ([1]; LS174T, read-out: cell panel IC50, LS 174T) of 6.11 µM and an IC50 ([1]; LoVo, read-out: cell panel IC50, LoVo) of 7.46 µM. The IC50 ([1]; MG-63, read-out: cell panel IC50, MG-63) was 8.78 µM, the IC50 ([1]; MOLT-4, read-out: cell panel IC50, MOLT-4) was 4.36 µM and the IC50 ([1]; MeWo, read-out: cell panel IC50, MeWo) was greater than 31.6 µM. The IC50 ([1]; NCI-H82, read-out: cell panel IC50, NCI-H82) was 31.2 µM, the IC50 ([1]; NCI-H460, read-out: cell panel IC50, NCI-H460) was 6.49 µM and the IC50 ([1]; OVCAR-3, read-out: cell panel IC50, OVCAR-3) was greater than 31.6 µM. The IC50 ([1]; RPMI-7951, read-out: cell panel IC50, RPMI-7951) was 7.78 µM, the IC50 ([1]; SHP77, read-out: cell panel IC50, SHP-77) was greater than 31.6 µM and the IC50 ([1]; SK-N-AS, read-out: cell panel IC50, SK-N-AS) was 24 µM. It also gave an IC50 ([1]; SW48, read-out: cell panel IC50, SW48) greater than 31.6 µM, an IC50 ([1]; SW480, read-out: cell panel IC50, SW480) of 18 µM and an IC50 ([1]; SW-620, read-out: cell panel IC50, SW620) of 5.3 µM. The IC50 ([1]; U2OS, read-out: cell panel IC50, U-2 OS) was 5.38 µM, the IC50 ([1]; U-87 MG, 72 h, read-out: IC50 in cell proliferation assay (table S5 cellpanel data)) was greater than 31.6 µM and the “%-inhibition of NEK2” value [2] was -19%. The “%-inhibition of DDR2” value [3] was 102% and the “%-inhibition of NEK7” value [4] was -3.77%.
